Test system: pigmented rabbits
Experiment: Retinal plug implantation in vitrectomized rabbit eyes, histopathology (PAS stain) at 28 days
Format: in vivo
Details: polylactic acid plug containing 10% by weight retinoid, inserted into vitreous through sclera; intravitreal injection of 500,000 human RPE cells; 28 days after insertion
Description: Retinal plugs were manufactured from poly(D,L)lactic acid (PLA) with an intrinsic viscosity of 0.6 DL/G. The retinoid 6-[(4,4-dimethyl thiochroman-6-yl)ethynl]nicotinic acid (AGN190299) was mixed with polymer in a three-dimensional mixer. The mixture was then extruded at 85° C. into a homogeneous rod. The retinoid was incorporated into the polymeric plug at a concentration of 10%. […] A 0.5 mm hole was drilled into the distal end of the plug to allow for suture fixation to the sclera. Placebo plugs containing no retinoid were also manufactured to the same dimensions. The average weight of the plugs was 8 mg. All plugs were sterilized by gamma irradiation at l Mrad.
The rabbit eyes were vitrectomized and the retinal plugs with or without incorporated retinoid were inserted through a sclerotomy 3 mm posterior to the corneoscleral limbus. The plugs were then fixated with the suture used to close the sclerotomy. An intravitreal injection of 500,000 human RPE cells was given to simulate traction retinal detachment. The rabbits were sacrificed at 28 days and histopathology was done.
These observed results are shown in FIG. 7 for the placebo plug and in FIG. 8 for the plug 10 including the retinoid as hereinabove described.

Structure (SMILES): CC1(C)CCSc2ccc(C#Cc3ccc(C(=O)O)cn3)cc21 [AGN190299, 6-[(4,4-dimethylthiochroman-6-yl)ethynyl]nicotinic acid]
- fibrous inflammation of the capsule surrounding the plug (histopathology, PAS stain): very little fibrous inflammation

Source: US20080213338A1, “IMPLANT STENT WITH A RETINOID FOR IMPROVED BIOCOMPATIBILITY” (priority 1997, published 2008)
